Data on 18 compounds can be found in patent US12440496B2, “Natriuretic peptide receptor a agonists useful for the treatment of cardiometabolic diseases, kidney disease and diabetes” (Merck Sharp & Dohme LLC, priority 2019, dated 2025).

Molecules are shown by their SMILES.

This test addresses T1, hNPRA (Homo sapiens, UniProt P16066).
T1 construct: expressed in transfected cells
T1 sequence (P16066 33-1061): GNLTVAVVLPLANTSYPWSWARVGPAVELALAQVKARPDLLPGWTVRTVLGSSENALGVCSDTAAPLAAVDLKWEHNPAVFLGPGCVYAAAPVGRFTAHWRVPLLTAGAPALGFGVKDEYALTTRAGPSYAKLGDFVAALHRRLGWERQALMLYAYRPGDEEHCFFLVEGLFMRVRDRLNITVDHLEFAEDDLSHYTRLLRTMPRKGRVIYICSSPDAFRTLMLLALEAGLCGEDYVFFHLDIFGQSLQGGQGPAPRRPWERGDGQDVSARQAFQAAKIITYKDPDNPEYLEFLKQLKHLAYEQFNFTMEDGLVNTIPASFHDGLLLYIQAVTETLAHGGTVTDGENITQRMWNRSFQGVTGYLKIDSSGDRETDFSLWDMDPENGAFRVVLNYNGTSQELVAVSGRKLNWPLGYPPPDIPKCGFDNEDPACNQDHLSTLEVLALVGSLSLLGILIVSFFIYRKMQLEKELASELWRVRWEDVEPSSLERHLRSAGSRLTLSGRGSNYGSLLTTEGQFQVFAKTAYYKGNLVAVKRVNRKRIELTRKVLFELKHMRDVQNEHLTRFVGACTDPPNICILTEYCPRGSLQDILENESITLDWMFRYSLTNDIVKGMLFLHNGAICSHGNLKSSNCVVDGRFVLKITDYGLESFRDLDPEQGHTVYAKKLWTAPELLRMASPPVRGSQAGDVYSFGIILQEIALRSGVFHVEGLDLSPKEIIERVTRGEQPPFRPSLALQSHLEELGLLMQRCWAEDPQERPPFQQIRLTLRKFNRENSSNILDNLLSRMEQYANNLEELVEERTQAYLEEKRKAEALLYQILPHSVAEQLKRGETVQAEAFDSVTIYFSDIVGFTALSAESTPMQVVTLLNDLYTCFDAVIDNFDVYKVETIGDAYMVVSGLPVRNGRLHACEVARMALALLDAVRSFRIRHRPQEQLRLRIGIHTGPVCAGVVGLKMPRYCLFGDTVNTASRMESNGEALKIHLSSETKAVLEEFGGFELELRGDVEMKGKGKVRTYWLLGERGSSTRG
The test is described as follows: NPRA Functional Cell Assay (cGMP HTRF, NPRA HEK JumpIn stable cells). The test is classed as cell-based. Particulars: cGMP production, 1 hour at 37° C., 10-point dose response. The method in brief:
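cGMP HTRF read-out after 1 hour compound treatment at 37° C. of human NPRA-expressing HEK JumpIn cells, 1500 cells/well, in buffer with phosphodiesterase inhibitors IBMX and RO20 (100 uM each). Signal converted to [cGMP] by calibration curve; EC50s fitted by 4-parameter logistic; 50 nM h-ANP as positive response.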
The EC50 is the concentration giving half of the maximal effect. A lower EC50 goes with higher potency in that assay. In turn, `CC(C)(C)[C@H]1CCc2nc3sc(C(=O)N[C@H](CCN4CCC(O)CC4)c4cccc(C(=O)NC5CCCNC5)c4)nc3cc2C1` (mixture of isomers) [Example 143, rac-(7S)-7-tert-butyl-N-[rac-(1R)-3-(4-hydroxy-1-piperidyl)-1-[3-(3-piperidylcarbamoyl)phenyl]propyl]-5,6,7,8-tetrahydrothiazolo[5,4-b]quinoline-2-carboxamide] came in with an EC50 of 276 nM.
`CN1C(=O)OCC12CN(C(=O)c1cccc([C@@H](CCN3CCC(O)CC3)NC(=O)c3nc4cc5c(nc4s3)CC[C@H](C(C)(C)C)C5)c1)C2` (racemic) [Example 144, rac-(7S)-7-tert-butyl-N-[rac-(1R)-3-(4-hydroxy-1-piperidyl)-1-[3-(5-methyl-6-oxo-7-oxa-2,5-diazaspiro[3.4]octane-2-carbonyl)phenyl]propyl]-5,6,7,8-tetrahydrothiazolo[5,4-b]quinoline-2-carboxamide] showed an EC50 of 462 nM.
`CC1(O)CN(C(=O)c2cccc([C@@H](CCN3CCC(O)CC3)NC(=O)c3nc4cc5c(nc4s3)CC[C@H](C(C)(C)C)C5)c2)C1` (racemic) [Example 145, rac-(7S)-7-tert-butyl-N-[rac-(1R)-1-[3-(3-hydroxy-3-methyl-azetidine-1-carbonyl)phenyl]-3-(4-hydroxy-1-piperidyl)propyl]-5,6,7,8-tetrahydrothiazolo[5,4-b]quinoline-2-carboxamide]: a half-maximal response (EC50) required 553 nM.
Next, `CC(C)(C)[C@H]1CCc2nc3sc(C(=O)N[C@H](CCN4CCC(O)CC4)c4cccc(C(=O)N5CCC6NCCC65)c4)nc3cc2C1` (mixture of isomers) [Example 146, rac-(7S)-7-tert-butyl-N-[rac-(1R)-1-[3-(2,3,3a,5,6,6a-hexahydro-1H-pyrrolo[3,2-b]pyrrole-4-carbonyl)phenyl]-3-(4-hydroxy-1-piperidyl)propyl]-5,6,7,8-tetrahydrothiazolo[5,4-b]quinoline-2-carboxamide]: 607 nM; `CC(C)(C)[C@H]1CCc2nc3sc(C(=O)N[C@H](CCN4CCC(O)CC4)c4cccc(C(=O)N5CC(N)C5)c4)nc3cc2C1` (racemic) [Example 147, rac-(7S)-7-tert-butyl-N-[rac-(1R)-1-[3-(3-aminoazetidine-1-carbonyl)phenyl]-3-(4-hydroxy-1-piperidyl)propyl]-5,6,7,8-tetrahydrothiazolo[5,4-b]quinoline-2-carboxamide]: 640 nM.
The compound `CN(C)C1CN(C(=O)c2cccc([C@@H](CCN3CCC(O)CC3)NC(=O)c3nc4cc5c(nc4s3)CC[C@H](C(C)(C)C)C5)c2)C1` (racemic) [Example 148, rac-(7S)-7-tert-butyl-N-[rac-(1R)-1-[3-[3-(dimethylamino)azetidine-1-carbonyl]phenyl]-3-(4-hydroxy-1-piperidyl)propyl]-5,6,7,8-tetrahydrothiazolo[5,4-b]quinoline-2-carboxamide] had an EC50 of 656 nM.
Next, `CN1CC(NC(=O)c2cccc([C@@H](CCN3CCC(O)CC3)NC(=O)c3nc4cc5c(nc4s3)CC[C@H](C(C)(C)C)C5)c2)CC1=O` (mixture of isomers) [Example 149, rac-(7S)-7-tert-butyl-N-[rac-(1R)-3-(4-hydroxy-1-piperidyl)-1-[3-[(1-methyl-5-oxo-pyrrolidin-3-yl)carbamoyl]phenyl]propyl]-5,6,7,8-tetrahydrothiazolo[5,4-b]quinoline-2-carboxamide]: 656 nM; `CC(C)(C)[C@H]1CCc2nc3sc(C(=O)N[C@H](CCN4CCC(O)CC4)c4cccc(C(=O)NCCN5CCOCC5)c4)nc3cc2C1` (racemic) [Example 150, rac-(7S)-7-tert-butyl-N-[rac-(1R)-3-(4-hydroxy-1-piperidyl)-1-[3-(2-morpholinoethylcarbamoyl)phenyl]propyl]-5,6,7,8-tetrahydrothiazolo[5,4-b]quinoline-2-carboxamide]: 682 nM; `CC(C)(C)[C@H]1CCc2nc3sc(C(=O)N[C@H](CCN4CCC(O)CC4)c4cccc(C(=O)NCCO)c4)nc3cc2C1` (racemic) [Example 151, rac-(7S)-7-tert-butyl-N-[rac-(1R)-1-[3-(2-hydroxyethylcarbamoyl)phenyl]-3-(4-hydroxy-1-piperidyl)propyl]-5,6,7,8-tetrahydrothiazolo[5,4-b]quinoline-2-carboxamide]: 682 nM.
On to `CC(C)(C)[C@H]1CCc2nc3sc(C(=O)N[C@H](CCN4CCC(O)CC4)c4cccc(C(=O)NCC5CCNC5)c4)nc3cc2C1` (mixture of isomers) [Example 152, rac-(7S)-7-tert-butyl-N-[rac-(1R)-3-(4-hydroxy-1-piperidyl)-1-[3-(pyrrolidin-3-ylmethylcarbamoyl)phenyl]propyl]-5,6,7,8-tetrahydrothiazolo[5,4-b]quinoline-2-carboxamide], for which the EC50 worked out at 686 nM.
Next, `CC(C)(C)[C@H]1CCc2nc3sc(C(=O)N[C@H](CCN4CCC(O)CC4)c4cccc(C(=O)N5CC(O)(C(F)(F)F)C5)c4)nc3cc2C1` (racemic) [Example 153, rac-(7S)-7-tert-butyl-N-[rac-(1R)-3-(4-hydroxy-1-piperidyl)-1-[3-[3-hydroxy-3-(trifluoromethyl)azetidine-1-carbonyl]phenyl]propyl]-5,6,7,8-tetrahydrothiazolo[5,4-b]quinoline-2-carboxamide]: 716 nM; `CC(C)(C)[C@H]1CCc2nc3sc(C(=O)N[C@H](CCN4CCC(O)CC4)c4cccc(C(=O)NC5CCNC5=O)c4)nc3cc2C1` (mixture of isomers) [Example 154, rac-(7S)-7-tert-butyl-N-[rac-(1R)-3-(4-hydroxy-1-piperidyl)-1-[3-[(2-oxopyrrolidin-3-yl)carbamoyl]phenyl]propyl]-5,6,7,8-tetrahydrothiazolo[5,4-b]quinoline-2-carboxamide]: 721 nM.
Next, `CC(C)(C)[C@H]1CCc2nc3sc(C(=O)N[C@H](CCN4CCC(O)CC4)c4cccc(C(=O)NC5CNC(=O)C5)c4)nc3cc2C1` (mixture of isomers) [Example 155, rac-(7S)-7-tert-butyl-N-[rac-(1R)-3-(4-hydroxy-1-piperidyl)-1-[3-[(5-oxopyrrolidin-3-yl)carbamoyl]phenyl]propyl]-5,6,7,8-tetrahydrothiazolo[5,4-b]quinoline-2-carboxamide]: 766 nM; `CC(C)(C)[C@H]1CCc2nc3sc(C(=O)N[C@H](CCN4CCC(O)CC4)c4cccc(C(=O)N5CC(O)C5)c4)nc3cc2C1` (racemic) [Example 156, rac-(7S)-7-tert-butyl-N-[rac-(1R)-1-[3-(3-hydroxyazetidine-1-carbonyl)phenyl]-3-(4-hydroxy-1-piperidyl)propyl]-5,6,7,8-tetrahydrothiazolo[5,4-b]quinoline-2-carboxamide]: 830 nM.
The figure for `CC(C)(C)[C@H]1CCc2nc3sc(C(=O)N[C@H](CCN4CCC(O)CC4)c4cccc(C(=O)N5CC(N6CCOCC6)C5)c4)nc3cc2C1` (racemic) [Example 157, rac-(7S)-7-tert-butyl-N-[rac-(1R)-3-(4-hydroxy-1-piperidyl)-1-[3-(3-morpholinoazetidine-1-carbonyl)phenyl]propyl]-5,6,7,8-tetrahydrothiazolo[5,4-b]quinoline-2-carboxamide] is 876 nM.
Turning to `CN1CC(NC(=O)c2cccc([C@@H](CCN3CCC(O)CC3)NC(=O)c3nc4cc5c(nc4s3)CC[C@H](C(C)(C)C)C5)c2)CCC1=O` (mixture of isomers) [Example 158, rac-(7S)-7-tert-butyl-N-[rac-(1R)-3-(4-hydroxy-1-piperidyl)-1-[3-[(1-methyl-6-oxo-3-piperidyl)carbamoyl]phenyl]propyl]-5,6,7,8-tetrahydrothiazolo[5,4-b]quinoline-2-carboxamide], the half-maximal effective concentration (EC50) worked out at 890 nM.
Next, `CN1CC(CNC(=O)c2cccc([C@@H](CCN3CCC(O)CC3)NC(=O)c3nc4cc5c(nc4s3)CC[C@H](C(C)(C)C)C5)c2)CC1=O` (mixture of isomers) [Example 159, rac-(7S)-7-tert-butyl-N-[rac-(1R)-3-(4-hydroxy-1-piperidyl)-1-[3-[(1-methyl-5-oxo-pyrrolidin-3-yl)methylcarbamoyl]phenyl]propyl]-5,6,7,8-tetrahydrothiazolo[5,4-b]quinoline-2-carboxamide]: 901 nM; `COC(=O)C1CN(C(=O)c2cccc([C@@H](CCN3CCC(O)CC3)NC(=O)c3nc4cc5c(nc4s3)CC[C@H](C(C)(C)C)C5)c2)CCO1` (mixture of isomers) [Example 160, methyl 4-[3-[rac-(1R)-3-(4-hydroxy-1-piperidyl)-1-[[rac-(7S)-7-tert-butyl-5,6,7,8-tetrahydrothiazolo[5,4-b]quinoline-2-carbonyl]amino]propyl]benzoyl]morpholine-2-carboxylate]: 1210 nM.
